Source: US11492325B2, “Compounds as inhibitors of sodium channels” (Human BioMolecular Research Institute, priority 2016, dated 2022)
Like-named read-outs stand apart in the source and are kept apart here.

What was measured:
[1] = tested on: normal human induced pluripotent stem cell (hiPSC) cardiomyocyte; settings: for WT-Fold Prolongation: APD; for WT-Cessation Dose (μM): cessation of beating
[2] = tested on: cardiomyocytes derived from hiPSCs from a LQTS3 patient
[3] = tested on: cardiomyocytes derived from hiPSCs from a LQTS3 patient; assay: cells; settings: Homo sapiens, Cardiomyocyte; for IC50: read-out: LQT-IC50 (uM)-Shortening
[4] = WT cardiomyocytes, AP prolongation
[5] = read-out: LQT-EC50 (μM) Shortening, LQT-3 cardiomyocytes, AP shortening
[6] = read-out: LQT-EC50 (μM) Shortening, pyridyl derivatives
[7] = LQT-3 cardiomyocytes, cessation of beating
[8] = LQT-3 cardiomyocytes, AP shortening

Compound | Cessation of Beating ([1]; normal hiPSC cardiomyocytes) | LQT-Cessation Dose ([2]; LQT3 cardiomyocytes) | WT-Fold Prolongation ([1]; normal hiPSC cardiomyocytes) | WT-Prolongation Dose ([1]; normal hiPSC cardiomyocytes) | LQT-Fold Shortening ([2]; LQT3 cardiomyocytes) | IC50 [3] | other results
Cc1cccc(C)c1OCC(N)C1CCCCC1.Cl (stereo not drawn) [Compound 73] | 66 µM | 66 µM | None | None | 1.136 | 0.082 µM | –
CCCCNC(C)COc1c(C)cccc1C (stereo not drawn) [Compound 39, 1-(2,6-dimethylphenoxy)-N-butylpropan-2-amine] | 133 µM | 66 µM | 3.827 | – | 1.180 | 0.73 µM | WT-EAD Dose ([1]; normal hiPSC cardiomyocytes): 66 µM
NC(COc1ccncc1)c1ccccc1 (stereo not drawn) [Compound 126] | – | – | – | – | – | – | WT-EC50 (μM) Prolongation [1, 4]: Does Not Prolong AP; WT-Cessation Dose (μM) ([1]; WT cardiomyocytes): No cessation of beating; LQT-Fold Shortening ([2]; LQT-3 cardiomyocytes): 1.281; EC50 [3, 5]: 3.82 µM; EC50 [3, 6]: ~4 µM
CC(N)COc1cccc(C(F)(F)F)c1.Cl (stereo not drawn) [Compound 85] | 200 µM | 200 µM | None | None | 1.661 | 31.3 µM | –
NC(COc1cccc2ccccc12)c1ccccc1 (stereo not drawn) [Compound 129] | – | – | – | – | – | – | WT-EC50 (μM) Prolongation [1, 4]: Does Not Prolong AP; LQT-Fold Shortening ([2]; LQT-3 cardiomyocytes): 1.316; LQT-Cessation Dose [2, 7]: 66 µM; EC50 [3, 5]: 0.82 µM
COCCNC(COc1cc(C)cc(C)c1)C1CC1.Cl (stereo not drawn) [Compound 68] | 200 µM | 200 µM | 1.686 | – | 1.11 | 0.022 µM | WT-EAD Dose ([1]; normal hiPSC cardiomyocytes): 66 µM
Cc1cccc(C)c1OCC(N)c1ccc(C(F)(F)F)cc1 (stereo not drawn) [Compound 16, 2-(2,6-dimethylphenoxy)-1-(4-(trifluoromethyl)phenyl)ethanamine] | 66 µM | 66 µM | None | None | 1.480 | 1.38 µM | –
2-(2,6-dimethylphenoxy)-1-(4-methoxyphenyl)ethanamine [Compound 14] | None | None | None | None | None | – | LQT-IC50 (uM)-Shortening ([2]; APD shortening, LQT3 cardiomyocytes): None; LQT-Shortening Dose ([2]; LQT3 cardiomyocytes): None
Cc1cccc(C)c1OCC(C)NCc1ccccc1 (stereo not drawn) [Compound 42, 1-(2,6-dimethylphenoxy)-N-benzylpropan-2-amine] | – | – | 1.684 | – | 1.26 | – | Cessation of Beating ([1]; human, 5 min): 200 µM; LQT-Cessation Dose ([2]; human, 5 min): 133 µM
NC(COc1ccnc(C(F)(F)F)c1)c1ccccc1 (stereo not drawn) [Compound 128] | – | – | – | – | – | – | WT-EC50 (μM) Prolongation [1, 4]: Does Not Prolong AP; WT-Cessation Dose (μM) ([1]; WT cardiomyocytes): No cessation of beating; LQT-Fold Shortening ([2]; LQT-3 cardiomyocytes): 1.226; LQT-EC50 (μM) Shortening [2, 8]: Shortens
CC(N)COc1ccccn1 (stereo not drawn) [Compound 48, (Pyridin-2-yloxy)propan-2-amine] | None | None | None | None | None | – | WT-Cessation Dose ([1]; pyridyl derivatives): No cessation of beating; WT-EC50 (μM) Prolongation ([1]; pyridyl derivatives): Does Not Prolong AP; LQT-Shortening Dose ([2]; LQT3 cardiomyocytes): None; LQT-EC50 (μM) Shortening ([2]; pyridyl derivatives): Does Not Shorten; LQT-Fold Shortening ([2]; pyridyl derivatives): Does Not Shorten; LQT-Shortening Dose ([2]; pyridyl derivatives): Does Not Shorten
Cc1cc(C)cc(OCC(N)c2ccc3ccccc3c2)c1 (stereo not drawn) [Compound 135] | – | – | – | – | – | – | WT-EC50 (μM) Prolongation [1, 4]: Does Not Prolong AP; LQT-Fold Shortening ([2]; LQT-3 cardiomyocytes): 1.667; LQT-Shortening Dose ([2]; LQT-3 cardiomyocytes): 133 µM; LQT-EC50 (μM) Shortening [2, 8]: Shortens; LQT-Cessation Dose [2, 7]: 200 µM
CC(N)COc1ccccc1C(F)(F)F (stereo not drawn) [Compound 51, 1-(2-(Trifluoromethyl)phenoxy)propan-2-amine] | None | None | None | None | 1.37 | – | –

Second part, led by results:

Cessation of Beating ([1]; normal hiPSC cardiomyocytes) | LQT-Cessation Dose ([2]; LQT3 cardiomyocytes) | Compound | WT-Fold Prolongation ([1]; normal hiPSC cardiomyocytes) | WT-Prolongation Dose ([1]; normal hiPSC cardiomyocytes) | LQT-Fold Shortening ([2]; LQT3 cardiomyocytes) | IC50 [3] | other results
66 µM | 133 µM | Cc1cccc(C)c1OCC(C)NC(=O)c1ccccc1 (stereo not drawn) [Compound 54] | None | None | 1.45 | 57.8 µM | –
22 µM | 133 µM | COc1ccccc1OCC(N)c1ccccc1 (stereo not drawn) [Compound 26, 2-(2-methoxyphenoxy)-1-phenylethanamine] | 2.502 | – | 1.482 | 0.13 µM | WT-EAD Dose ([1]; normal hiPSC cardiomyocytes): 7.4 µM
None | None | NC(COc1ncccc1C(F)(F)F)c1ccccc1 (stereo not drawn) [Compound 96, 1-phenyl-2-((3-(trifluoromethyl)pyridin-2-yl)oxy)ethan-1-amine] | 1.163 | – | 1.3 | – | WT-Cessation Dose ([1]; pyridyl derivatives): No cessation of beating; WT-EC50 (μM) Prolongation ([1]; pyridyl derivatives): Does Not Prolong AP; LQT-Fold Shortening ([2]; pyridyl derivatives): 1.358; LQT-Shortening Dose ([2]; pyridyl derivatives): 133 µM; EC50 [3, 6]: 20.7 µM
200 µM | 133 µM | CCCc1ccccc1OCC(C)N (stereo not drawn) [Compound 49, 1-(2-Propylphenoxy)propan-2-amine] | 1.385 | – | 1.192 | 0.85 µM | –
None | None | Cc1cccc(C)c1OCC(NC(=O)c1ccccc1)c1ccccc1 (stereo not drawn) [Compound 29, N-(2-(2,6-dimethylphenoxy)-1-phenylethyl)benzamide] | None | None | 1.64 | > 0.8 µM | –
66 µM | 66 µM | CC(=O)NC(COc1c(C)cccc1C)c1ccccc1 (stereo not drawn) [Compound 28, N-(2-(2,6-dimethylphenoxy)-1-phenylethyl)acetamide] | None | None | 1.620 | > 0.8 µM | –
None | None | C[C@@H](N)COc1ccccc1Cl [Compound 58] | 2.392 | – | None | – | WT-EAD Dose ([1]; normal hiPSC cardiomyocytes): 200 µM; LQT-Shortening Dose ([2]; LQT3 cardiomyocytes): None
66 µM | 66 µM | COc1ccc(C(N)COc2c(C)cccc2C)cc1 (stereo not drawn) [Compound 15, 2-(2,6-dimethylphenoxy)-1-(4-methoxyphenyl)ethanamine] | None | None | 1.42 | – | –
None | None | NC(COc1ccccn1)c1ccccc1 (stereo not drawn) [Compound 20, 1-phenyl-2-(pyridin-2-yloxy)ethanamine] | None | None | None | – | WT-Cessation Dose ([1]; pyridyl derivatives): No cessation of beating; WT-EC50 (μM) Prolongation ([1]; pyridyl derivatives): Does Not Prolong AP; LQT-Shortening Dose ([2]; LQT3 cardiomyocytes): None; LQT-EC50 (μM) Shortening ([2]; pyridyl derivatives): Does Not Shorten; LQT-Fold Shortening ([2]; pyridyl derivatives): Does Not Shorten; LQT-Shortening Dose ([2]; pyridyl derivatives): Does Not Shorten
